These results are taken from PMC7705431 (Cell Research, 2020).

The target of series [1] is T1, human ACE2 (Homo sapiens, UniProt Q9BYF1).
T1 construct: purchased Sino Biological Inc. 10108-H08B
Put plainly: SPR binding to immobilized human ACE2 (BIAcore S200). The note with it: read-out: ka. On the technique in general: SPR reads the build-up and loss of mass on a sensor chip optically.
Experimental: The remaining activated sites on the chip were blocked with 75 μL of ethanolamine (1 M, pH 8.5). […] The equilibrium dissociation constant (KD) for binding as well as the association (Ka) and dissociation (Kd) rate constants were determined using the BIA evaluation program (GE, USA).

For series [2], the target named is T2, cathepsin L (Homo sapiens, UniProt P07711).
T2 construct: purchased Abcam ab65306
Put plainly: Cathepsin L activity assay (fluorometric kit). It counts as biochemical.
Experimental: A positive control of cathepsin L inhibitor I (CTSL, MG-101, 20 μM) was provided in the kit. A total of 2 μL of 10 mM Ac-FR-AFC substrate was added to each well. The samples were incubated at 37 °C for 2 h. Fluorescence was measured using a multifunctional microplate reader (Cytation 3, BioTek, Winooski, VT, USA), at an excitation wavelength of 400 nm and an emission wavelength of 505 nm.

For series [3] the following is noted: rhesus monkey, in vivo.
Series [4] is described as follows: in vitro. The settings on record: Vero E6 cells.
For series [5] the following is noted: cited from earlier work.
For series [6] the following is noted: cited from earlier work. The source holds these as a separate data set.
For series [7] the following is noted: preclinical and clinical studies; cited from earlier work.
Series [8] concerns the target T3, SARS-CoV-2 spike protein–ACE2 interaction (Homo sapiens, UniProt Q9BYF1). The experiment in a line: co-IP of SARS-CoV-2 spike protein with ACE2, western blot. The class given is biochemical. The note with it: drug 10 μM; western blot with anti-ACE2 antibody. (In general: In western blotting, separated proteins are transferred to a membrane and probed.)
Experimental: Co-IP was performed as follows. […] The blots were incubated with anti-rabbit IgG HRP (KPL, USA) and imaged using electrochemiluminescence (ECL, ThermoFisher, USA).
In series [9] the target is T3, SARS-CoV-2 spike protein–ACE2 interaction. The experiment in a line: ELISA of SARS-CoV-2 spike protein binding to ACE2 crosslinked to microplates. The settings on record: drug 1 μM; 1 h 37 °C. It counts as biochemical. In general terms: In an ELISA, binding on a coated surface is turned into a signal by an enzyme label.
The test system of series [10] is SARS-CoV-2. It counts as cell-based.

T3 sequence (Q9BYF1 18-740): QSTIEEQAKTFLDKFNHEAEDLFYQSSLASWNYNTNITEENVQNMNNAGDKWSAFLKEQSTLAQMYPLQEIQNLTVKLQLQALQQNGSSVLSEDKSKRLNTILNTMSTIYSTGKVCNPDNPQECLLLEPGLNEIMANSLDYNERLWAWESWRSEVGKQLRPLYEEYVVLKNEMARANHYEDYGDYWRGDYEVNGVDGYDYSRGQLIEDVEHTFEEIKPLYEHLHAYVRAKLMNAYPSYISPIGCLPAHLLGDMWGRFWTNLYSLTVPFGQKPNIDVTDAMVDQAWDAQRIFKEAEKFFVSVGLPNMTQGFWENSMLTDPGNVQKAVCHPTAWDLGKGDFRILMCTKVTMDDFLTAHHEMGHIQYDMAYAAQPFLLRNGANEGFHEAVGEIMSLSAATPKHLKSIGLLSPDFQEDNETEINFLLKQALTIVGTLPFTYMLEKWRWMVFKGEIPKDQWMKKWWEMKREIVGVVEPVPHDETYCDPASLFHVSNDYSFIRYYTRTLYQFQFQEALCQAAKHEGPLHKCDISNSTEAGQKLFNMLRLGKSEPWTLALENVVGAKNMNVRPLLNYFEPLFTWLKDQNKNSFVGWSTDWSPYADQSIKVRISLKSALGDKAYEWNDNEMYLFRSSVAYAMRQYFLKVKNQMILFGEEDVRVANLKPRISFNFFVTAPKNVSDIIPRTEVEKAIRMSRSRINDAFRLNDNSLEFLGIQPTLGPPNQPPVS
T2 sequence (P07711 114-333, species assumed): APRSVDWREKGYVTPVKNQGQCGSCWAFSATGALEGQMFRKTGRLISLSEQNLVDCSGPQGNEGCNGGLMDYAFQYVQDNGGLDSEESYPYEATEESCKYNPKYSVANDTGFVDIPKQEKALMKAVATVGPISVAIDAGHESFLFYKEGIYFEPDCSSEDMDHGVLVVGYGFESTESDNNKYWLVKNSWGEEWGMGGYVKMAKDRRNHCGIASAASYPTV
T1 sequence (Q9BYF1 18-805): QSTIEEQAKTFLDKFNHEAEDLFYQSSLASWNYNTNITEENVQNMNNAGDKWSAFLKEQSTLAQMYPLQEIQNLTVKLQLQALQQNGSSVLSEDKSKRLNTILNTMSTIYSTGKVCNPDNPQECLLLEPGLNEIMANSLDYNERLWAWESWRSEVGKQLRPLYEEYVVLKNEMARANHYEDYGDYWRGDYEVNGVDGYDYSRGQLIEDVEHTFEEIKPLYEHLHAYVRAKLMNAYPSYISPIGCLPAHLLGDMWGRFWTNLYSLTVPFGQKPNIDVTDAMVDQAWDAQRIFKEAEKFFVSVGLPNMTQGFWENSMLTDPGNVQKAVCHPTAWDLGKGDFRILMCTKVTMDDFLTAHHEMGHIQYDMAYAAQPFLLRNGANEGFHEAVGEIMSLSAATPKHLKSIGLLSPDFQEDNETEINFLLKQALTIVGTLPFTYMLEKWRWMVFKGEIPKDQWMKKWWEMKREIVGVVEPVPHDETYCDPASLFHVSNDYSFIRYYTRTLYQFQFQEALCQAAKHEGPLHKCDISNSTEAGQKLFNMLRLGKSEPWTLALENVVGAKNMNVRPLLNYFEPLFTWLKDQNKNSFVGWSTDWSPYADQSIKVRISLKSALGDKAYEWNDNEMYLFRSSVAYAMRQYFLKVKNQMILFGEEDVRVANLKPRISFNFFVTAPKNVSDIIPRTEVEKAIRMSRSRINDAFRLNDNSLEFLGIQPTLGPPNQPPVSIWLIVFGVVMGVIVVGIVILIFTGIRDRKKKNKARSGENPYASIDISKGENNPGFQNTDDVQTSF

On to `CN[C@H]1C(=O)N[C@@H]2Cc3ccc(cc3)Oc3cc4cc(c3O[C@@H]3O[C@H](C(=O)O)[C@@H](O)[C@H](O)[C@H]3NC(=O)CCCCCCCCC(C)C)Oc3ccc(cc3Cl)[C@@H](O)[C@@H]3NC(=O)[C@H](NC(=O)[C@@H]4NC(=O)[C@@H](NC2=O)c2cc(cc(O)c2Cl)Oc2cc1ccc2O)c1ccc(O)c(c1)-c1c(O[C@H]2O[C@H](CO)[C@@H](O)[C@H](O)[C@@H]2O)cc(O)cc1[C@@H](C(=O)NCCCN(C)C)NC3=O` [dalbavancin], for which the kon in series [1] turned out to be 360000 M⁻¹ s⁻¹. For the same compound, the inhibition at 400 µM in series [2] (read-out: inhibition of cathepsin L enzymatic activity) is roughly 40%. The compound also displayed a serum half-life in series [3] of 120 to 170 h. Further, in [4], the half-maximal cytotoxic concentration (CC50) is greater than 3.2 µM. Moreover, the plasma half-life in series [5] was 120 to 170 h. The protein-bound in plasma in [6] was greater than 90%. Also, in series [7], the tolerability entry is recorded as “well tolerated”.
In the case of Oxiglutatione, the “suppression of SARS-CoV-2 spike protein–ACE2 co-precipitation” value in series [8] is given as “suppressed the interaction”. The “inhibition of binding of SARS-CoV-2 spike protein to ACE2 (ELISA)” value in series [9] is “inhibited the binding”.
As for cathepsin L inhibitor I, the “inhibition of cathepsin L enzymatic activity” value in [2] (20 μM, positive control, Ac-FR-AFC substrate, 37 °C 2 h) is reported as ~ 100%.
Polymyxin B sulfate: in series [8], the “suppression of SARS-CoV-2 spike protein–ACE2 co-precipitation” value was “suppressed the interaction”.
On to `CCC(CC)COC(=O)[C@H](C)N[P@](=O)(OC[C@H]1O[C@@](C#N)(c2ccc3c(N)ncnn23)[C@H](O)[C@@H]1O)Oc1ccccc1` [Remdesivir], for which the “inhibition of CPEs” value in series [10] is recorded as “significantly inhibited the CPEs”.

What is called inhibition is the change of the read-out against control, counted positive when it falls. As usually defined, the CC50 is the concentration at which the toxic effect on the cells reaches its halfway point.
